Test results taken from the supplement of paper PMC10307832.

How the values were obtained:
Assay in all cases: relative viability (nuclei count vs DMSO), 5 days (fraction); higher = more cells survive
[1] = compound: C/C(=N\NC(=S)N1CCC1)/C2=CC=CC=N2 + Cc1cc(Nc2cc(N3CCN(C)CC3)nc(Sc3ccc(NC(=O)C4CC4)cc3)n2)n[nH]1 [Tozasertib] (partner 0.1 µM)
How it was run: (§1)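 Relative viability equals treated-well nuclei counts divided by vehicle-well nuclei counts. Counts came from 4× images of lung cancer cell lines grown in 1536-well plates for 5 days after pin-tool dosing on the day after seeding. Dosing used one drug alone or a fixed anchor-drug dose plus five library-drug doses (not always all listed) in √10 steps, and values are medians of duplicate plates.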

[2] = compound: C/C(=N\NC(=S)N1CCC1)/C2=CC=CC=N2 + COc1cc2c(Oc3ccc(NC(=O)C4(C(=O)Nc5ccc(F)cc5)CC4)cc3F)ccnc2cc1OCCCN1CCOCC1 [Foretinib] (partner 0.25 µM)
How it was run: as §1

[3] = compound: C/C(=N\NC(=S)N1CCC1)/C2=CC=CC=N2 + NC(=O)Nc1cc(-c2cccc(F)c2)sc1C(=O)N[C@H]1CCCNC1 [AZD7762] (partner 0.2 µM)
How it was run: as §1

[4] = compound: C/C(=N\NC(=S)N1CCC1)/C2=CC=CC=N2 + CCNC(=O)c1noc(-c2cc(C(C)C)c(O)cc2O)c1-c1ccc(CN2CCOCC2)cc1 [Luminespib] (partner 0.01 µM)
How it was run: as §1

Cell Line | relative viability ([1]; first compound 0.05 µM) | relative viability ([1]; first compound 0.1581 µM) | relative viability ([1]; first compound 0.5 µM) | relative viability ([1]; first compound 1.581 µM) | relative viability ([1]; first compound 5 µM) | relative viability ([2]; first compound 0.05 µM) | relative viability ([2]; first compound 0.1581 µM) | relative viability ([2]; first compound 0.5 µM) | relative viability ([2]; first compound 1.581 µM) | relative viability ([2]; first compound 5 µM) | relative viability ([3]; first compound 0.05 µM) | relative viability ([3]; first compound 0.1581 µM) | relative viability ([3]; first compound 0.5 µM) | relative viability ([3]; first compound 1.581 µM) | relative viability ([3]; first compound 5 µM) | relative viability ([4]; first compound 0.05 µM) | relative viability ([4]; first compound 0.1581 µM) | relative viability ([4]; first compound 0.5 µM) | relative viability ([4]; first compound 1.581 µM) | relative viability ([4]; first compound 5 µM)
LC-2-ad | 0.253 | 0.244 | 0.23 | 0.171 | 0.207 | 0.225 | 0.309 | 0.267 | 0.227 | 0.235 | 0.212 | 0.202 | 0.182 | 0.165 | 0.163 | 0.269 | 0.273 | 0.252 | 0.219 | 0.247
LCLC-97TM1 | 0.193 | 0.218 | 0.105 | 0.128 | 0.165 | 0.511 | 0.752 | 0.193 | 0.12 | 0.155 | 0.0761 | 0.0694 | 0.0641 | 0.0548 | 0.0577 | 0.415 | 0.623 | 0.109 | 0.136 | 0.151
LCLC-103H | 0.244 | 0.175 | 0.202 | 0.133 | 0.165 | 0.176 | 0.311 | 0.221 | 0.133 | 0.167 | 0.272 | 0.219 | 0.27 | 0.185 | 0.262 | 0.174 | 0.204 | 0.233 | 0.182 | 0.158
LK-2 | 0.166 | 0.139 | 0.157 | 0.147 | 0.149 | 0.134 | 0.183 | 0.202 | 0.133 | 0.146 | 0.0945 | 0.0875 | 0.049 | 0.086 | 0.0796 | 0.16 | 0.147 | 0.158 | 0.188 | 0.131
LOU-NH91 | 0.38 | 0.411 | 0.366 | 0.313 | 0.367 | 0.519 | 0.447 | 0.507 | 0.469 | 0.375 | 0.46 | 0.548 | 0.479 | 0.294 | 0.428 | 0.257 | 0.293 | 0.274 | 0.185 | 0.264
LU99A | 0.155 | 0.164 | 0.164 | 0.152 | 0.165 | 0.276 | 0.189 | 0.181 | 0.186 | 0.189 | 0.153 | 0.12 | 0.125 | 0.107 | 0.14 | 0.15 | 0.116 | 0.152 | 0.164 | 0.148
LXF-289 | 0.126 | 0.108 | 0.114 | 0.124 | 0.0738 | 0.422 | 0.31 | 0.294 | 0.311 | 0.121 | 0.212 | 0.266 | 0.218 | 0.124 | 0.116 | 0.169 | 0.132 | 0.177 | 0.153 | 0.126
NCI-H23 | 0.122 | 0.172 | 0.119 | 0.112 | 0.133 | 0.226 | 0.262 | 0.196 | 0.181 | 0.209 | 0.0952 | 0.131 | 0.124 | 0.096 | 0.131 | 0.151 | 0.149 | 0.204 | 0.206 | 0.204
NCI-H322M | 0.271 | 0.27 | 0.241 | 0.313 | 0.364 | 0.282 | 0.32 | 0.31 | 0.295 | 0.336 | 0.316 | 0.333 | 0.381 | 0.37 | 0.414 | 0.314 | 0.327 | 0.289 | 0.263 | 0.309
NCI-H358 | 0.0651 | 0.0617 | 0.0695 | 0.0742 | 0.0612 | 0.0918 | 0.107 | 0.0747 | 0.0879 | 0.107 | 0.174 | 0.217 | 0.16 | 0.15 | 0.18 | 0.0782 | 0.118 | 0.144 | 0.108 | 0.0871
NCI-H441 | 0.294 | 0.229 | 0.159 | 0.168 | 0.195 | 0.314 | 0.236 | 0.238 | 0.174 | 0.167 | 0.264 | 0.178 | 0.173 | 0.144 | 0.153 | 0.205 | 0.158 | 0.251 | 0.181 | 0.164
NCI-H460 | 0.0816 | 0.0449 | 0.0431 | 0.0348 | 0.0095 | 0.1 | 0.06 | 0.0602 | 0.0533 | 0.0171 | 0.0608 | 0.0607 | 0.0479 | 0.0377 | 0.0347 | 0.0193 | 0.0163 | 0.025 | 0.0173 | 0.0171
NCI-H596 | 0.445 | 0.34 | 0.191 | 0.195 | 0.2 | 0.461 | 0.725 | 0.208 | 0.199 | 0.272 | 0.331 | 0.321 | 0.312 | 0.244 | 0.297 | 0.433 | 0.673 | 0.246 | 0.222 | 0.235
NCI-H647 | 0.0603 | 0.0452 | 0.0549 | 0.0672 | 0.0612 | 0.128 | 0.0812 | 0.172 | 0.132 | 0.105 | 0.0396 | 0.0606 | 0.048 | 0.0361 | 0.0379 | 0.0621 | 0.051 | 0.0851 | 0.0853 | 0.0804
NCI-H650 | 0.184 | 0.189 | 0.185 | 0.158 | 0.16 | 0.222 | 0.238 | 0.234 | 0.242 | 0.194 | 0.225 | 0.209 | 0.199 | 0.223 | 0.143 | 0.177 | 0.2 | 0.198 | 0.173 | 0.2
NCI-H727 | 0.28 | 0.311 | 0.257 | 0.159 | 0.261 | 0.225 | 0.231 | 0.227 | 0.227 | 0.22 | 0.265 | 0.249 | 0.311 | 0.228 | 0.312 | 0.249 | 0.337 | 0.294 | 0.346 | 0.34
